Measurements reported in patent US20170007669A1, “PEPTIDE-MEDIATED DELIVERY OF ACTIVE AGENTS ACROSS THE BLOOD-BRAIN BARRIER” (Mayo Foundation for Medical Education and Research, priority 2015, published 2017).
Blank lines part the entries; values can stand above or below the molecule they belong to. Where no end group is shown, it is not given here.

How the values were obtained:
blood-brain barrier = test: Transportation of Evan's Blue (EB) dye across the BBB after IV injection of peptide; format: in vivo, mouse; conditions: for EB dye in brain: EB 10 min later, brain collected 1 h after EB
Description: To explore whether K16ApoE (SEQ. ID. NO: 42) compromises integrity of the BBB, the peptide was first injected by IV followed by injection of Evan's Blue (EB; a routinely used small molecule blue dye with a molecular weight of 960.81) by IV into the femoral vein of a mouse. Cardiac perfusion was performed and the brains of the mice were removed and evaluated approximately 2 hours following injection of the dye. As controls, a peptide consisting of 16 lysine residues (K16) and a 20-amino acid peptide comprising the LDLR-binding domain of ApoE (ApoE-FITC; (SEQ ID NO:13)), were used. The particulars of each administration are as follows: • 1) 67.5 nanomoles of K16 injected first, then ˜40 μL 2% EB was injected. • 2) Same as 1 but K16 and EB mixed prior to injection. • 3) 67.5 nanomoles of ApoE-FITC injected first, then ˜40 μL 2% EB was injected. • 4) Same as 3 but ApoE-FITC peptide and EB was mixed prior to injection. • 5) 67.5 nanomoles of K16ApoE injected first, then ˜40 μL 2% EB was injected. • 6) Same as 5 but K16ApoE peptide and EB was mixed first before injection.
Using the method described in Example 1, various amounts of K16ApoE (SEQ. ID. NO: 42) was injected followed by administration of ˜40 μL 2% EB. The particulars of each administration are as follows: • 1) EB alone. • 2) 50 μg (11.25 nanomoles) K16ApoE first, followed by administration of EB. • 3) 100 μg (22.5 nanomoles) K16ApoE first, followed by administration of EB. • 4) 200 μg (45 nanomoles) K16ApoE first, followed by administration of EB. • 5) 300 μg (67.5 nanomoles) K16ApoE first, followed by administration of EB.
˜40 μL of 2% EB was injected 10 min after injection of various amounts of K16ApoE (75 μg, 100 μg, 150 μg, 250 μg, and 300 μg) or K26ApoE (25 μg, 50 μg, 75 μg, 100 μg, 125 μg, and 150 μg). K26ApoE (SEQ ID NO: 139) having the sequence:
Brain tissue as was collected 1 h following EB injection. All injections were at the femoral vein.

[1] = Residence time of EB dye in brain following transportation by the peptide; format: in vivo, mice; conditions: EB 10 min after 300 μg K16ApoE
Description: A series of mice were administered 300 μg of K16ApoE followed by administration of ˜40 μL 2% EB 10 min after administration of the peptide. As a control, only EB was injected, cardiac perfusion was done 6 hours after EB injection, followed by collection of brain. For all other mice, perfusion and collection of brains was performed 15 min, 30 min, 1 h, 2 h, 4 h, 6 h, 12, h, and 24 h following administration of EB.

[2] = Tissue distribution of Evans Blue (EB) after delivery via K16ApoE; format: in vivo, mice; conditions: tissues 1 h after EB
Description: Mice were injected with various amounts of K16ApoE peptide (0 μg, 150 μg, 100 μg, 75 μg, 50 μg, 25 and μg) first. EB (40 μL of a 2% solution was injected 10 min after injection of the peptide. Tissues (brains, lungs, heart, liver, spleen and kidney) were collected 1 h after EB delivery. All injections were through the femoral vein.

Molecule: KKKKKKKKKKKKKKKKKKKKKKKKKK- LRVRLASHLRKLRKRLLRDA (KKKKKKKKKKKKKKKKKKKKKKKKKKLRVRLASHLRKLRKRLLRDA) [K26ApoE]
EB dye in brain (blood-brain barrier; 25 μg peptide): no dye was observed | EB dye in brain (blood-brain barrier; 50 μg peptide): only a small amount of dye present | EB dye in brain (blood-brain barrier; 75 μg peptide): Increasing EB is observed | effectiveness in delivering EB to the brain relative to K16ApoE (blood-brain barrier; comparison of peptide amounts needed): approximately two-fold

time post EB administration from which dye is observed in brain [1]: 15 min | time EB is retained well in the brain ([1]; dye remains intense): up to 4 h | time EB is probably retained in the brain (less intense dye) ([1]; longest time point tested): up to 24 h
Molecule: Cc1cc(-c2ccc(/N=N/c3ccc4c(S(=O)(=O)[O-])cc(S(=O)(=O)[O-])c(N)c4c3O)c(C)c2)ccc1/N=N/c1ccc2c(S(=O)(=O)[O-])cc(S(=O)(=O)[O-])c(N)c2c1O.[Na+].[Na+].[Na+].[Na+] [EB, Evan's Blue]
EB stain in organs ([2]; EB injected without K16ApoE): Kidney, spleen, liver and heart show some EB-stain

Molecule: KKKKKKKKKKKKKKKKLRVRLASHLRKLRKRLLRDA [K16ApoE, KKKKKKKKKKKKKKKKLRVRLASHLRKLRKRLLRDA]
EB in brain ([2]; 0-150 μg K16ApoE, EB 10 min later): EB goes into brain only after injection of the peptide | EB stain in organs ([2]; EB injected after K16ApoE injection): Kidney, spleen and liver are stained with EB
